The subject of the assay is L1210 leukemia ip in BDF1 mice, survival T/C. As to the kind of experiment: NCI In Vivo Anticancer Drug Screen. Data for tumor model L1210 Leukemia (intraperitoneal) in B6D2F1 (BDF1) mice. The conditions noted are these: endpoint: mean survival time, higher = longer survival. The method, boiled down:
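Transplantable tumor model; survival measured in treated vs vehicle control mice. Value = treated/control.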

Setting [1] is: dose: 75.0 mg/kg/injection, schedule: Q01DX001 (ip), vehicle: saline.
Where [2] appears, read: dose: 150.0 mg/kg/injection, schedule: Q01DX001 (ip), vehicle: saline.
The mark [3] stands for this setting: dose: 100.0 mg/kg/injection, schedule: Q01DX001 (ip), vehicle: saline.
The mark [4] stands for this setting: dose: 200.0 mg/kg/injection, schedule: Q01DX001 (ip), vehicle: saline.
The mark [5] stands for this setting: dose: 400.0 mg/kg/injection, schedule: Q01DX001 (ip), vehicle: saline.
The mark [6] stands for this setting: dose: 25.0 mg/kg/injection, schedule: Q01DX009 (ip), vehicle: Klucel (hydroxypropylcellulose) (HPC).

We go through 16 molecules from PubChem BioAssay AID248 (DTP/NCI, 2004).

Several values for one entry are separate records, joined by “and”; a condition that tells them apart may be missing. Identical values can stand only once. Inconclusive results and toxic doses are left out.

As for `CCOC(=O)C1CCC1C(=O)OCC` (stereo not drawn), the T/C is, setting by setting: (dose: 50.0 mg/kg/injection, schedule: Q01DX009 (ip), vehicle: saline) 95 % of control; (dose: 100.0 mg/kg/injection, schedule: Q01DX009 (ip), vehicle: saline) 95 % of control; (dose: 100.0 mg/kg/injection, schedule: Q04DX003 (ip), vehicle: saline) 96 % of control; (dose: 200.0 mg/kg/injection, schedule: Q01DX009 (ip), vehicle: saline) 94 % of control; (dose: 200.0 mg/kg/injection, schedule: Q04DX003 (ip), vehicle: saline) 102 % of control; (dose: 400.0 mg/kg/injection, schedule: Q04DX003 (ip), vehicle: saline) 102 % of control.
`CCC[n+]1ccc(C#N)cc1`: the T/C was 106 % of control under setting [1] and 89 % of control under setting [2].
Consider `O=C(NCCCl)Nc1ccc(Cl)cc1`, for which the T/C is, setting by setting: (dose: 100.0 mg/kg/injection, schedule: Q01DX001 (ip), vehicle: Klucel (hydroxypropylcellulose) (HPC)) 104 % of control; (dose: 200.0 mg/kg/injection, schedule: Q01DX001 (ip), vehicle: Klucel (hydroxypropylcellulose) (HPC)) 102 % of control; (dose: 400.0 mg/kg/injection, schedule: Q01DX001 (ip), vehicle: Klucel (hydroxypropylcellulose) (HPC)) 91 % of control.
Turning to `CC(=O)Oc1ccc([N+](=O)[O-])cc1OC(C)=O`, the T/C (dose: 75.0 mg/kg/injection, schedule: Q01DX001 (ip), vehicle: water) is 92 % of control; the T/C (dose: 150.0 mg/kg/injection, schedule: Q01DX001 (ip), vehicle: water) is 92 % of control; the T/C (dose: 300.0 mg/kg/injection, schedule: Q01DX001 (ip), vehicle: water) is 95 % of control.
In the case of `Cc1cccc(N2CCN(CC(O)COc3cccc4ccccc34)CC2)c1` (stereo not drawn), the T/C runs as follows: under setting [3], 95 % of control; under setting [4], 98 % of control; under setting [5], 95 % of control.
As for `CCP(=O)(CC)CC`, the T/C is 104 % of control (dose: 1000.0 mg/kg/injection, schedule: Q01DX Z (ip), vehicle: saline) and 101 % of control (dose: 2000.0 mg/kg/injection, schedule: Q01DX Z (ip), vehicle: saline).
As to `CC(C)C(C(=O)O)C(=O)O`, the T/C reads like this: under setting [3], 102 % of control; under setting [4], 104 % of control; under setting [5], 112 % of control.
For the molecule `CC(C)(N)CC(=O)Oc1ccccc1`, the T/C by setting is: (dose: 37.5 mg/kg/injection, schedule: Q04DX003 (ip), vehicle: saline) 97 % of control; under setting [1], 104 % of control; under setting [2], 101 % of control; (dose: 150.0 mg/kg/injection, schedule: Q04DX003 (ip), vehicle: saline) 92 % of control.
As to `Nc1nc(N)nc(C(=O)Cc2ccccc2)n1`, the T/C (dose: 50.0 mg/kg/injection, schedule: Q01DX009 (ip), vehicle: saline with Tween-80) is 108 % of control; the T/C (dose: 100.0 mg/kg/injection, schedule: Q01DX009 (ip), vehicle: saline with Tween-80) was 101 % of control; the T/C (dose: 200.0 mg/kg/injection, schedule: Q01DX009 (ip), vehicle: saline with Tween-80) is 94 % of control.
As for `CCOC(=O)C(=O)c1c[nH]c2ccccc12`, the T/C was 97 % of control (dose: 100.0 mg/kg/injection, schedule: Q04DX003 (ip), vehicle: saline with Tween-80); 97 % of control (dose: 200.0 mg/kg/injection, schedule: Q04DX003 (ip), vehicle: saline with Tween-80); 95 % of control (dose: 400.0 mg/kg/injection, schedule: Q04DX003 (ip), vehicle: saline with Tween-80).
Take `CCN(CC)C(=S)Oc1c(C(C)(C)C)cc([N+](=O)[O-])c(C)c1[N+](=O)[O-]`: the T/C was 90 % of control (dose: 100.0 mg/kg/injection, schedule: Q04DX002 (ip), vehicle: Klucel (hydroxypropylcellulose) (HPC)); 100 % of control (dose: 200.0 mg/kg/injection, schedule: Q04DX002 (ip), vehicle: Klucel (hydroxypropylcellulose) (HPC)); 97 % of control (dose: 400.0 mg/kg/injection, schedule: Q04DX002 (ip), vehicle: Klucel (hydroxypropylcellulose) (HPC)).
Consider `COCCNC(=O)SCCC(=O)O`, for which the T/C reads like this: under setting [3], 96 % of control; under setting [4], 100 % of control; under setting [5], 100 % of control.
In the case of `c1ccc2c(c1)ccc1[nH]c3ccc4ccccc4c3c12`, the T/C is, setting by setting: (dose: 12.5 mg/kg/injection, schedule: Q01DX009 (ip), vehicle: Klucel (hydroxypropylcellulose) (HPC)) 109 % of control; under setting [6], 93 % of control; (dose: 25.0 mg/kg/injection, schedule: Q04DX003 (ip), vehicle: Klucel (hydroxypropylcellulose) (HPC)) 107 % of control; (dose: 50.0 mg/kg/injection, schedule: Q04DX003 (ip), vehicle: Klucel (hydroxypropylcellulose) (HPC)) 86 % of control; (dose: 100.0 mg/kg/injection, schedule: Q04DX003 (ip), vehicle: Klucel (hydroxypropylcellulose) (HPC)) 97 % of control.
As to `Cc1nc(N)[nH]c(=O)c1CCCN=Cc1ccc([N+](=O)[O-])cc1`, the T/C by setting is: (dose: 18.75 mg/kg/injection, schedule: Q01DX001 (ip), vehicle: Klucel (hydroxypropylcellulose) (HPC)) 95 % of control; (dose: 37.5 mg/kg/injection, schedule: Q01DX001 (ip), vehicle: Klucel (hydroxypropylcellulose) (HPC)) 101 % of control; (dose: 75.0 mg/kg/injection, schedule: Q01DX001 (ip), vehicle: Klucel (hydroxypropylcellulose) (HPC)) 101 % of control.
On to `Cc1cc(NC(=S)Nc2ccccc2)c(NC(=S)Nc2ccccc2)cc1C`, for which the T/C is, setting by setting: (dose: 12.5 mg/kg/injection, schedule: Q01DX005 (ip), vehicle: Klucel (hydroxypropylcellulose) (HPC)) 103 % of control; (dose: 25.0 mg/kg/injection, schedule: Q01DX005 (ip), vehicle: Klucel (hydroxypropylcellulose) (HPC)) 87 % of control; under setting [6], 96 % of control; (dose: 50.0 mg/kg/injection, schedule: Q01DX005 (ip), vehicle: Klucel (hydroxypropylcellulose) (HPC)) 103 % of control; (dose: 50.0 mg/kg/injection, schedule: Q01DX009 (ip), vehicle: Klucel (hydroxypropylcellulose) (HPC)) 96 % of control; (dose: 100.0 mg/kg/injection, schedule: Q01DX005 (ip), vehicle: Klucel (hydroxypropylcellulose) (HPC)) 97 % of control and 101 % of control. The T/C is 93 % of control (dose: 100.0 mg/kg/injection, schedule: Q01DX009 (ip), vehicle: Klucel (hydroxypropylcellulose) (HPC)); 97 % of control (dose: 150.0 mg/kg/injection, schedule: Q01DX009 (ip), vehicle: Klucel (hydroxypropylcellulose) (HPC)); 90 % of control (dose: 335.0 mg/kg/injection, schedule: Q01DX009 (ip), vehicle: Klucel (hydroxypropylcellulose) (HPC)); 101 % of control (dose: 400.0 mg/kg/injection, schedule: Q01DX005 (ip), vehicle: Klucel (hydroxypropylcellulose) (HPC)).
With `NC(=O)c1[nH]cnc1NN=NCCCl`, the T/C (dose: 0.37 mg/kg/injection, schedule: Q01DX009 (ip), vehicle: saline with Tween-80) was 165 % of control; the T/C (dose: 0.75 mg/kg/injection, schedule: Q01DX001 (ip), vehicle: saline with Tween-80) was 106 % of control; the T/C (dose: 0.75 mg/kg/injection, schedule: Q01DX009 (ip), vehicle: saline with Tween-80) was 119 % of control; the T/C (dose: 1.5 mg/kg/injection, schedule: Q01DX009 (ip), vehicle: saline with Tween-80) was 122 % of control; the T/C (dose: 3.0 mg/kg/injection, schedule: Q01DX009 (ip), vehicle: saline with Tween-80) was 173 % of control; the T/C (dose: 3.12 mg/kg/injection, schedule: Q01DX009 (ip), vehicle: saline with Tween-80) was 172 % of control. The T/C was 156 % of control and 189 % of control (dose: 4.0 mg/kg/injection, schedule: Q01DX009 (ip), vehicle: saline with Tween-80); 164 % of control and 240 % of control (dose: 6.0 mg/kg/injection, schedule: Q01DX009 (ip), vehicle: saline with Tween-80); 258 % of control (dose: 6.25 mg/kg/injection, schedule: Q01DX009 (ip), vehicle: saline with Tween-80); 191 % of control and 215 % of control (dose: 9.0 mg/kg/injection, schedule: Q01DX009 (ip), vehicle: saline with Tween-80); 247 % of control (dose: 12.5 mg/kg/injection, schedule: Q01DX001 (ip), vehicle: saline with Tween-80); 161 % of control (dose: 12.5 mg/kg/injection, schedule: Q01DX009 (ip), vehicle: saline with Tween-80). Moreover, the T/C reads like this: (dose: 17.0 mg/kg/injection, schedule: Q01DX001 (ip), vehicle: saline with Tween-80) 215 % of control and 229 % of control; (dose: 25.0 mg/kg/injection, schedule: Q01DX001 (ip), vehicle: saline with Tween-80) 207 % of control and 285 % of control and 313 % of control; (dose: 25.0 mg/kg/injection, schedule: Q01DX009 (ip), vehicle: saline with Tween-80) 91 % of control; (dose: 37.0 mg/kg/injection, schedule: Q01DX001 (ip), vehicle: saline with Tween-80) 171 % of control and 257 % of control; (dose: 50.0 mg/kg/injection, schedule: Q01DX001 (ip), vehicle: saline with Tween-80) 197 % of control.
